Experiments:
[1] = Cytotoxicity against human MRC5 SV2 cells assessed as reduction in cell viability after 3 days resazurin-based fluorimetric assay; conditions: MRC-5 SV2, 72 h
Trypanosoma cruzi = assay: Antiparasitic activity against Trypanosoma cruzi Tulahuen CL2 intracellular amastigotes expressing beta-galactosidase infected in human MRC5 SV2 cells after 7 days by chlorophenol red beta-D-galactopyranoside-based spectrophotometric analysis; type: functional, organism-based; conditions: Tulahuen CL2, MRC-5 SV2, 168 h, read-out: EC50
[2] = Therapeutic index, ratio EC50 for human MRC5 SV2 cells to EC50 for Trypanosoma cruzi Tulahuen CL2 intracellular amastigotes; type: toxicity, cell-based; conditions: read-out: Ratio EC50
[3] = Drug metabolism in mouse liver microsome S9 fraction assessed as CYP450-mediated metabolism by measuring compound remaining at 5 uM pretreated with NADPH and measured after 15 mins by UPLC-MS/MS analysis; type: ADME, microsomes; conditions: microsomes, 0.25 h, 5 µM
[4] = Drug metabolism in rat liver microsome S9 fraction assessed as CYP450-mediated metabolism by measuring compound remaining at 5 uM pretreated with NADPH and measured after 30 mins by UPLC-MS/MS analysis; type: ADME, microsomes; conditions: microsomes, 0.5 h, 5 µM
[5] = Drug metabolism in mouse liver microsome S9 fraction assessed as CYP450-mediated metabolism by measuring compound remaining at 5 uM pretreated with NADPH and measured after 30 mins by UPLC-MS/MS analysis; type: ADME, microsomes; conditions: microsomes, 0.5 h, 5 µM
Cytochrome P450 [6] = assay: Drug metabolism in human liver microsome S9 fraction assessed as CYP450-mediated metabolism by measuring compound remaining at 5 uM pretreated with NADPH and measured after 15 mins by UPLC-MS/MS analysis; type: ADME, microsomes; conditions: microsomes, 0.25 h, 5 µM
[7] = Drug metabolism in dog liver microsome S9 fraction assessed as CYP450-mediated metabolism by measuring compound remaining at 5 uM pretreated with NADPH and measured after 60 mins by UPLC-MS/MS analysis; type: ADME, microsomes, Canis lupus familiaris; conditions: microsomes, 1 h, 5 µM
[8] = Drug metabolism in rat liver microsome S9 fraction assessed as CYP450-mediated metabolism by measuring compound remaining at 5 uM pretreated with NADPH and measured after 60 mins by UPLC-MS/MS analysis; type: ADME, microsomes; conditions: microsomes, 1 h, 5 µM
[9] = Drug metabolism in rat liver microsome S9 fraction assessed as CYP450-mediated metabolism by measuring compound remaining at 5 uM pretreated with NADPH and measured after 15 mins by UPLC-MS/MS analysis; type: ADME, microsomes; conditions: microsomes, 0.25 h, 5 µM
Cytochrome P450 [10] = assay: Drug metabolism in human liver microsome S9 fraction assessed as CYP450-mediated metabolism by measuring compound remaining at 5 uM pretreated with NADPH and measured after 30 mins by UPLC-MS/MS analysis; type: ADME, microsomes; conditions: microsomes, 0.5 h, 5 µM
[11] = Drug metabolism in mouse liver microsome S9 fraction assessed as CYP450-mediated metabolism by measuring compound remaining at 5 uM pretreated with NADPH and measured after 60 mins by UPLC-MS/MS analysis; type: ADME, microsomes; conditions: microsomes, 1 h, 5 µM
[12] = Drug metabolism in dog liver microsome S9 fraction assessed as CYP450-mediated metabolism by measuring compound remaining at 5 uM pretreated with NADPH and measured after 30 mins by UPLC-MS/MS analysis; type: ADME, microsomes, Canis lupus familiaris; conditions: microsomes, 0.5 h, 5 µM
Cytochrome P450 [13] = assay: Drug metabolism in human liver microsome S9 fraction assessed as CYP450-mediated metabolism by measuring compound remaining at 5 uM pretreated with NADPH and measured after 60 mins by UPLC-MS/MS analysis; type: ADME, microsomes; conditions: microsomes, 1 h, 5 µM
[14] = Drug metabolism in dog liver microsome S9 fraction assessed as CYP450-mediated metabolism by measuring compound remaining at 5 uM pretreated with NADPH and measured after 15 mins by UPLC-MS/MS analysis; type: ADME, microsomes, Canis lupus familiaris; conditions: microsomes, 0.25 h, 5 µM

| Structure (SMILES) | EC50 [1] [µM] | EC50 (Trypanosoma cruzi) [nM] | selectivity ratio [2] | further results |
| --- | --- | --- | --- | --- |
| Nc1ncnc2c1c(-c1ccc(F)c(F)c1)cn2[C@@H]1O[C@H](CO)C[C@H]1O | > 64 | 330 | > 190 |  |
| Nc1ncnc2c1c(-c1ccc(Cl)cc1Cl)cn2[C@@H]1O[C@H](CO)C[C@H]1O | 19.6 | 450 | 44 |  |
| OC(Cn1cncn1)(Cn1cncn1)c1ccc(F)cc1F [FLUCONAZOLE] |  |  |  | Stability [3]: Stable; Stability [4]: Stable; Stability [5]: Stable; Stability (Cytochrome P450 [6]): Stable; Stability [7]: Stable; Stability [8]: Stable; Stability [9]: Stable; Stability (Cytochrome P450 [10]): Stable; Stability [11]: Stable; Stability [12]: Stable; Stability (Cytochrome P450 [13]): Stable; Stability [14]: Stable |
| Nc1ncnc2c1c(-c1ccc3ccccc3c1)cn2[C@@H]1O[C@H](CO)C[C@H]1O | 5 | 720 | 7 |  |
| Nc1ncnc2c1ncn2[C@@H]1O[C@H](CO)C[C@H]1O [CORDYCEPIN] | > 64 | 2510 | > 25 |  |
| CC(C)c1ccc(-c2cn([C@@H]3O[C@H](CO)C[C@H]3O)c3ncnc(N)c23)cc1 | 24.9 | 8480 | 2.9 |  |
| Nc1ncnc2c1c(-c1ccccc1)cn2[C@@H]1O[C@H](CO)C[C@H]1O | 61.8 | 2570 | 24 |  |
| Cc1ccc(-c2cn([C@@H]3O[C@H](CO)C[C@H]3O)c3ncnc(N)c23)cc1 | 21 | 460 | 46 |  |
| Nc1ncnc2c1c(C1CCCCC1)cn2[C@@H]1O[C@H](CO)C[C@H]1O | > 64 | 20900 | > 3 |  |
| Nc1ncnc2c1c(-c1ccc(Cl)c(F)c1)cn2[C@@H]1O[C@H](CO)C[C@H]1O | 18.6 | 71 | 260 |  |
| Nc1ncnc2c1c(-c1ccc([N+](=O)[O-])cc1)cn2[C@@H]1O[C@H](CO)C[C@H]1O | > 64 | 1210 | > 53 |  |
| Cc1ccc(-c2cn([C@@H]3O[C@H](CO)C[C@H]3O)c3ncnc(N)c23)cc1C | 22.3 | 1370 | 16 |  |
| Nc1ncnc2c1c(-c1ccc(F)c(Cl)c1)cn2[C@@H]1O[C@H](CO)C[C@H]1O | 45.5 | 300 | 150 |  |
| COc1ccc(-c2cn([C@@H]3O[C@H](CO)C[C@H]3O)c3ncnc(N)c23)cc1Cl | > 64 | 3300 | > 19 |  |
| CCc1ccc(-c2cn([C@@H]3O[C@H](CO)C[C@H]3O)c3ncnc(N)c23)cc1 | 18.4 | 1040 | 18 |  |

Reference: ChEMBL document CHEMBL4382200, “Discovery of Novel 7-Aryl 7-Deazapurine 3'-Deoxy-ribofuranosyl Nucleosides with Potent Activity against Trypanosoma cruzi” (J Med Chem, 2018)
